Laboratory results: patent US20100249175A1, “Dicationic compounds which selectively recognize G-quadruplex DNA” (priority 2005, published 2010)
Where a name gives a salt, the structure may show the parent alone. Read-outs that look alike come from different tables or passages of the source.

What was measured:
[1] = system: telomeric G-quadruplex DNA sequence d[AG3(T2AG3)3] (SEQ ID NO: 1); assay: CD titration of compounds into human telomeric G-quadruplex DNA (induced CD); format: binding; set-up: key to Induced CD (no exciton): ++: Relative strength of the induced CD is indicated by the number of (+) marks; +++: Relative strength of the induced CD is indicated by the number of (+) marks; ++++: Relative strength of the induced CD is indicated by the number of (+) marks; conditions: for Induced CD (exciton) / Induced CD (no exciton): G-Quadruplex Affinity
Text: The oligonucleotides d[AG3(T2AG3)3] (SEQ ID NO: 1), d[AG3TG4AG3TG4A] (SEQ ID NO: 2), d[G4(T4G4)3] (SEQ ID NO: 3), d[(T2G4)4] (SEQ ID NO: 4), d[(GC)7] (SEQ ID NO: 5), d[[…]] (SEQ ID NO: 6), d[G2T2G2TGTG2T2G2] (SEQ ID NO: 7), d[[…]] (SEQ ID NO: 8), d[[…]] (SEQ ID NO: 9), d[[…]] (SEQ ID NO: 10), d[[…]] (SEQ ID NO: 11), d[TTAGGGT] (SEQ ID NO: 12), and d[TGGGGT] (SEQ ID NO: 13) were purchased with HPLC purification from Midland Certified Reagent Company (The Midland Certified Reagent Company, Inc., Midland, Tex., USA). The concentration of each DNA sample was determined spectrophotometrically at 260 nm using the nearest neighbor extinction coefficient.
Stock solutions of individual dicationic polyaryl compounds were prepared in double distilled water and diluted to working concentrations immediately before use with buffer. All measurements were performed at 20° C. in a 10 mM HEPES buffer (pH 7.4) containing 3 mM EDTA and 50 mM KCl, NaCl, or LiCl. Absorbance spectra were obtained on a Varian Cary 300 BIO UV-visible spectrophotometer (Varian, Inc., Palo Alto, Calif., United States of America) in a quartz cell with a 1 cm pathlength. CD spectra were recorded using a Jasco J-810 spectrapolarimeter (Jasco, Inc., Easton, Md., United States of America) in a 1-cm cell using an instrument scanning speed of 50 nm/min with a response time of 1 s. The spectra were averaged over four scans. A buffer baseline scan was collected in the same cuvette and subtracted from the average scan for each sample. Appropriate amounts of dicationic compound stock solution or DNA were added sequentially to increase the molar ratio.
When an achiral ligand binds tightly to a chiral host, such as DNA, a CD signal is induced in the wavelength region corresponding to the absorbance of the ligand. […] An additional negative band centered at 395 nm overlaps with the higher energy exciton band. […] Restriction of the rotational and translational freedom of the two molecules of the dimer relative to each other will cause an increase in the rotational strength of the induced CD band, resulting in a large ellipticity. See Allenmark, S., Chirality, 15, 409-422 (2003).
Some compounds appeared to bind to the telomeric G-quadruplex DNA sequence d[AG3(T2AG3)3] […] Relative strength of the induced CD is indicated by the number of (+) marks.

[2] = system: Plasmodium falciparum (P. f.); assay: In vitro antiprotozoal activity against P. f.; format: cell-based; conditions: read-out: P.f. (IC50)
Procedure: (§1) In vitro antiprotozoal activities were measured following established protocols. […] E., et al., Bioorg.

[3] = system: STIB 900 strain of Trypanosoma brucei rhodesiense (T. b. r.); assay: In vivo T. b. r. STIB 900 mouse model; conditions: for In Vivo T.b.r. cures: mice cured / mice infected, days 3-6 post-infection; for In Vivo T.b.r. survival time: observation up to day 60
Procedure: Groups of four mice were infected intraperitoneally with 2×10^5 bloodstream forms of T. b. r. STIB 900 which originates from a patient in Tanzania. On days 3, 4, 5, and 6 post-infection the experimental groups were treated with the drugs either by the intraperitoneal or for prodrugs by the oral route. Usually the highest tolerated dose was used which was determined in a pretoxicological experiment. Parasitemia of the mice was checked daily up to day 14 post-infection and thereafter 2 times per week up to day 60. One group of mice was not treated and acted as control. For relapsing mice, the day of death was recorded and the survival time determined.

[4] = system: Trypanosoma brucei rhodesiense (T. b. r.); assay: In vitro antiprotozoal activity against T. b. r.; format: cell-based
Procedure: as §1

melting point	SMILES	Induced CD (no exciton) [1]	IC50 [4]	IC50 ([2]; in vitro)	further results
> 300 °C	N=C(N)c1ccc(-c2ccc(-c3ccc(-c4ccc(C(=N)N)cc4)[se]3)[se]2)cc1				
> 300 °C	N=C(N)c1ccnc(-c2ccc(-c3ccc(-c4cc(C(=N)N)ccn4)[se]3)[se]2)c1				
> 300 °C	N=C(N)c1ccc(-c2ccc(-c3ccc(-c4ccc(C(=N)N)cn4)o3)o2)nc1 [Compound 22, 5,5′-Bis-(5-amidino-2-pyridyl)-2,2′-bifuran]				
> 300 °C	N=C(N)c1ccc(-c2ccc(-c3ccc(-c4ccc(C(=N)N)cc4)s3)s2)cc1 [Compound 26a, 5,5′-Bis-(4-amidinophenyl)-2,2′-bithiophene]				
> 300 °C	N=C(N)c1ccnc(-c2ccc(-c3ccc(-c4cc(C(=N)N)ccn4)s3)s2)c1 [Compound 26b, 5,5′-Bis-(4-amidino-2-pyridyl)-2,2′-bithiophene]				

The next lines start with the compound.

SMILES	melting point	Induced CD (no exciton) [1]	IC50 [4]	IC50 ([2]; in vitro)	further results
N=C(N)c1ccc(-c2ccc(-c3ccc(-c4ccc(C(=N)N)cc4)o3)o2)cc1 [Compound 17, 5,5′-bis-(4-Amidinophenyl)-2,2′-bifuran hydrochloride salt]					exciton splitting in CD spectra (in words) [1]: induced exciton splitting; Induced CD (exciton) [1]: ++++; IC50 [2]: 20 nM; In Vivo T.b.r. cures ([3]; 10 mg/kg ip): 0/4; In Vivo T.b.r. survival time ([3]; 10 mg/kg ip): 22 days
N=C(N)c1ccc2nc(-c3ccc(-c4ccc(C(=N)N)o4)o3)[nH]c2c1 [Compound 45]		++	102 nM	92 nM	
COc1ccc(-c2nc3ccc(-c4nc5ccc(C(=N)N)cc5[nH]4)cc3[nH]2)cc1 [Compound 46]		++++	16 nM	29 nM	In Vivo T.b.r. cures ([3]; 5 mg/kg ip): 0/4; In Vivo T.b.r. survival time ([3]; 5 mg/kg ip): 14.75 days
N=C(N)c1ccc(-c2ccc(-c3nc4ccc(C(=N)N)cc4[nH]3)o2)cc1 [Compound 47]		+++	122 nM	96 nM	In Vivo T.b.r. cures ([3]; 20 mg/kg ip): 1/4; In Vivo T.b.r. survival time ([3]; 20 mg/kg ip): > 27.75 days
c1cc(-c2ccc(-c3nc4ccc(C5=NCCN5)cc4[nH]3)o2)ccc1C1=NCCN1 [Compound 48]		++++			
c1cc(-c2ccc(-c3ccc(C4=NCCN4)o3)o2)oc1C1=NCCN1 [Compound 49]			793 nM	93 nM	exciton splitting in CD spectra (in words) [1]: induced exciton splitting; Induced CD (exciton) [1]: ++
c1ccc2[nH]c(-c3ccc(-c4ccc(C5=NCCN5)cc4)o3)nc2c1 [Compound 50]		+++			
N=C(N)c1ccc(-c2ccc(-c3ccc(C(=N)N)o3)cc2)cc1 [Compound 51]			5 nM	1 nM	exciton splitting in CD spectra (in words) [1]: induced exciton splitting; Induced CD (exciton) [1]: +
N=C(N)c1ccc2nc(-c3ccc(-c4ccc(C(=N)N)c(F)c4)o3)[nH]c2c1 [Compound 52]		+++	52.5 nM	31 nM	In Vivo T.b.r. cures ([3]; 20 mg/kg ip): 2/4; In Vivo T.b.r. survival time ([3]; 20 mg/kg ip): > 52 days
CC1=CC(C(=N)N)=CN2C=C(c3ccc(-c4ccc(C(=N)N)cc4)o3)NC12 (centres unmarked) [Compound 53]		+++	9 nM	88 nM	In Vivo T.b.r. cures ([3]; 5 mg/kg ip): 4/4; In Vivo T.b.r. survival time ([3]; 5 mg/kg ip): > 60 days
N=C(N)c1ccc(-c2ccc(-c3ccc(C(=N)N)cc3)o2)cc1 [furamidine, reference compound]					In Vivo T.b.r. survival time ([3]; 5 mg/kg ip): 46.5 days
